Values after ≈ are worked out from the molar mass of the structure shown. Values joined by “and” are separate entries in the source; they are usually repeats but may differ in a detail not shown here. Identical values can stand only once. Like-named read-outs stand apart in the source and are kept apart here.
What was measured:
[1] = test system: S. aureus ATCC BAA-1556 USA300; assay: Broth microdilution MIC; assay type: cell-based, Staphylococcus aureus; details: Staphylococcus aureus, S. aureus ATCC BAA-1556 USA300; substance alone
[2] = test system: K. pneumoniae ATCC 700603; assay: Broth microdilution MIC; assay type: cell-based, Klebsiella pneumoniae; details: for MIC: Klebsiella pneumoniae, ATCC700603, K. pneumoniae ATCC 700603, substance alone, read-out: MIC
[3] = test system: Gram-positive strains; assay: Broth microdilution MIC, summary over Gram-positive strains; assay type: cell-based
[4] = test system: CaCo-2 (ATCC HTB-37) colon–rectal cancer cell line; assay: MTT cytotoxicity assay on CaCo-2 cells; assay type: cell-based, human; details: for IC50: Homo sapiens; for Percentage of cell growth, antibiotic / Percentage of cell growth, antibiotic + PB4 0.2 µM: CaCo-2
Procedure: To fully assess the biological activity of the new molecules, they were tested at different concentrations on the CaCo-2 (ATCC HTB-37) colon–rectal cancer cell line. These human cancer cells were exposed to compound solutions ranging in concentration from 100 µM to 0.01 µM. As a reference compound for these assays, we used 5-Fluorouracil (5-FU), a pyrimidine analog from the antimetabolite family.
The MTT assay was also performed for the selected antibiotics to evaluate the effect of their combined treatment with PB4.
To evaluate the effect of the heteroaryl ethylene compounds and the antibiotics, an MTT ([3-(4,5-dimethylthiazol-2-yl)-2,5-diphenyltetrazolium bromide]) assay was performed as previously described. […] Both concentrations were also tested in combination with PB4 0.2 µM. All antibiotics were provided by Thermo Scientific^TM Oxoid^TM, Basingstoke, UK. Twenty-four hours after plating, the cells were treated with 20 μL of each solution. Untreated cells were used as controls. […] The IC50 values were calculated by nonlinear regression analysis using GraphPad Prism 6.0 software.

[5] = test system: S. aureus ATCC 29213; assay: Broth microdilution MIC; assay type: cell-based; details: Staphylococcus aureus, ATCC29213, S. aureus ATCC 29213
[6] = test system: E. faecalis ATCC 29212; assay: Broth microdilution MIC; assay type: cell-based, Enterococcus faecalis; details: for MIC: Enterococcus faecalis, ATCC29212, E. faecalis ATCC 29212
[7] = test system: E. coli ATCC 25922; assay: Broth microdilution MIC; assay type: cell-based; details: Escherichia coli
[8] = test system: Gram-negative bacteria; assay: Broth microdilution MIC, summary over Gram-negative bacteria; assay type: cell-based; details: summary in text over Gram-negative bacteria
[9] = test system: A. baumannii ATCC 17978; assay: Broth microdilution MIC; assay type: cell-based; details: Acinetobacter baumannii, ATCC17978, substance alone
[10] = test system: S. aureus ATCC 12598; assay: Broth microdilution MIC; assay type: cell-based, Staphylococcus aureus; details: Staphylococcus aureus, ATCC12598, S. aureus ATCC 12598; substance alone; read-out: MIC
[11] = test system: S. enterica ATCC 14028; assay: Broth microdilution MIC; assay type: cell-based; details: Salmonella enterica, ATCC14028, substance alone
[12] = test system: P. aeruginosa ATCC 27853; assay: Broth microdilution MIC; assay type: cell-based, Pseudomonas aeruginosa; details: for MIC: Pseudomonas aeruginosa, ATCC27853, P. aeruginosa ATCC 27853
[13] = test system: S. aureus ATCC 29213; set-up: method as in earlier work; details: quality control range, ref CLSI; cited from earlier work
[14] = test system: E. faecalis ATCC 29212; set-up: method as in earlier work; details: quality control range, ref CLSI; cited from earlier work
[15] = test system: P. aeruginosa ATCC 27853; set-up: method as in earlier work; details: quality control range, ref CLSI; cited from earlier work
[16] = test system: E. coli ATCC 25922; set-up: method as in earlier work; details: quality control range, ref CLSI; cited from earlier work
[17] = test system: all tested strains; assay: Broth microdilution MIC, summary over all tested strains; assay type: cell-based; details: all tested bacterial strains; antibiotic + PB4
[18] = Caco-2, 24 h, CaCo-2 cell line, MTT, 24 h of treatment, read-out: IC50 at 24 h
[19] = Caco-2, 48 h, CaCo-2 cell line, MTT, 48 h of treatment, read-out: IC50 at 48 h
[20] = ATCC25922, substance alone, read-out: MIC
[21] = quality control strain, technical positive control, read-out: MIC (quality control)

| Compound | MIC [1] | MIC [2] | MIC [3] [µg/mL] | IC50 [4, 18] [nM] | IC50 [4, 19] [nM] | MIC ([5]; substance alone, read-out: MIC) | MIC ([6]; substance alone, read-out: MIC) | MIC [7, 20] | MIC [9] | MIC [10] | MIC [11] | MIC ([12]; substance alone, read-out: MIC) | also measured |
| --- | --- | --- | --- | --- | --- | --- | --- | --- | --- | --- | --- | --- | --- |
| C[n+]1c(/C=C/c2ccc(-c3cccs3)s2)cccc1/C=C/c1ccc(-c2cccs2)s1 [GC-VI-70] | 4 µg/mL and 6.65 µM | > 128 µg/mL and > 213 µM | 2 to 16 | 940 | 3760 | 16 µg/mL and 26.6 µM | 2 µg/mL and 3.32 µM | 128 µg/mL and 213 µM | 32 µg/mL and 53.2 µM | 16 µg/mL and 26.6 µM | > 128 µg/mL and > 213 µM | > 128 µg/mL and > 213 µM | IC50 ([4]; Caco-2, CaCo-2 cells, time not given, read-out: IC50 value on CaCo-2 cells): 320 nM; MIC values for Gram-negative bacteria [8]: high MIC values |
| CN(C)c1ccc(/C=C/C=C/c2ccc3ccccc3[n+]2C)cc1 [GC-VII-50] | 2 µg/mL and 4.6 µM | > 128 µg/mL and > 297 µM | 0.25 to 8 | 170 | 70 | 0.5 µg/mL and 1.1 µM | 8 µg/mL and 18.5 µM | 64 µg/mL and 149 µM | 16 µg/mL and 37.2 µM | 0.25 µg/mL and 0.5 µM | > 128 µg/mL and > 297 µM | > 128 µg/mL and > 297 µM | – |
| CNC(C)C1CCC(N)C(OC2C(N)CC(N)C(OC3OCC(C)(O)C(NC)C3O)C2O)O1 (stereo not drawn) [Gentamicin, gentamicin, reference compound] | 0.5 µg/mL (≈ 1.05 µM) | 8 µg/mL (≈ 16.8 µM) | – | – | – | 0.5 µg/mL (≈ 1.05 µM) | 4 µg/mL (≈ 8.38 µM) | 0.5 µg/mL (≈ 1.05 µM) | 2 µg/mL (≈ 4.19 µM) | 0.5 µg/mL (≈ 1.05 µM) | 1 µg/mL (≈ 2.09 µM) | 2 µg/mL (≈ 4.19 µM) | Reduction of antibiotic MIC by PB4 ([2]; K. pneumoniae ATCC 700603, antibiotic + PB4 vs antibiotic alone): 2 -fold log MIC reductions; MIC CLSI Range [13]: 0.125 to 1 µg/mL; Percentage of cell growth, antibiotic ([4]; antibiotic alone at MIC for E. faecalis ATCC 29212, 24 h): 158.2%; Percentage of cell growth, antibiotic ([4]; antibiotic alone at MIC for E. faecalis ATCC 29212, 48 h): 247.5%; Percentage of cell growth, antibiotic ([4]; antibiotic alone at sub-MIC (half-MIC), 24 h): 132.3%; Percentage of cell growth, antibiotic ([4]; antibiotic alone at sub-MIC (half-MIC), 48 h): 271.7%; Percentage of cell growth, antibiotic + PB4 0.2 µM ([4]; antibiotic at MIC + PB4 0.2 µM, 24 h): 125.6%; Percentage of cell growth, antibiotic + PB4 0.2 µM ([4]; antibiotic at MIC + PB4 0.2 µM, 48 h): 141.1%; Percentage of cell growth, antibiotic + PB4 0.2 µM ([4]; antibiotic at sub-MIC + PB4 0.2 µM, 24 h): 132.4%; Percentage of cell growth, antibiotic + PB4 0.2 µM ([4]; antibiotic at sub-MIC + PB4 0.2 µM, 48 h): 99.2%; MIC CLSI Range [14]: 4 to 16 µg/mL; MIC [5, 21]: 0.5 µg/mL (≈ 1.05 µM); MIC CLSI Range [15]: 0.5 to 2 µg/mL; Reduction of antibiotic MIC by PB4 ([6]; E. faecalis ATCC 29212, antibiotic + PB4 vs antibiotic alone): 2 -fold log reduction; MIC [6, 21]: 8 µg/mL (≈ 16.8 µM); MIC ([7]; ATCC25922, quality control strain, technical positive control, read-out: MIC (quality control)): 0.5 µg/mL (≈ 1.05 µM); MIC CLSI Range [16]: 0.25 to 1 µg/mL; Reduction of antibiotic MIC by PB4 ([12]; P. aeruginosa ATCC 27853, antibiotic + PB4 vs antibiotic alone): 2 -fold log MIC reductions; MIC [12, 21]: 2 µg/mL (≈ 4.19 µM) |
| C[C@@H](O)[C@H]1C(=O)N2C(C(=O)O)=C(SCCN=CN)C[C@H]12 [IMI, imipenem, reference compound] | – | 0.03 µg/mL (≈ 0.1 µM) | – | – | – | – | – | 0.06 µg/mL (≈ 0.2 µM) | 0.06 µg/mL (≈ 0.2 µM) | – | 0.06 µg/mL (≈ 0.2 µM) | 0.25 µg/mL (≈ 0.835 µM) | MIC reduction in combination with PB4 [17]: no significant MIC reductions |

— PMC10451629, “Evaluation of the Effects of Heteroaryl Ethylene Molecules in Combination with Antibiotics: A Preliminary Study on Control Strains” (Antibiotics, 2023)
